Results from patent US10519154B2, “7-substituted 1-pyridyl-naphthyridine-3-carboxylic acid amides and use thereof” (Bayer Pharma Aktiengesellschaft, priority 2016, dated 2019).

Biological target: T1, human M2 receptor (Homo sapiens, UniProt P08172)
T1 sequence (P08172 1-466): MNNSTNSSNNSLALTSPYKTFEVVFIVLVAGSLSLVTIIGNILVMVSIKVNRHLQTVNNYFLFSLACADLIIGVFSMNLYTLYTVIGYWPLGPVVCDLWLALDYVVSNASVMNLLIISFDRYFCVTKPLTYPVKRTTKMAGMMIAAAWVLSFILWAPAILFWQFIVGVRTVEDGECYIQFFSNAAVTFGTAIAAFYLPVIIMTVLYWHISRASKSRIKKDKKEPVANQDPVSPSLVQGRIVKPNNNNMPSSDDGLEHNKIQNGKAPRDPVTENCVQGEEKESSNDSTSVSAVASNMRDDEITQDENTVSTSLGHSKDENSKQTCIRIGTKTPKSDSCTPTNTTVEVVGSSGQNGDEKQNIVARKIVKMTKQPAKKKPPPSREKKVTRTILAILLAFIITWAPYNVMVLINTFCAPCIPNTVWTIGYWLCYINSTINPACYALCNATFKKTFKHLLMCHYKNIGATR
Assay: Functional M2-GIRK1/4 activation test: allosteric potency (EC50) and efficiency
Conditions: for EC50: Receptor activity EC50, CHO-DUKX-M2-GIRK cells, acetylcholine at EC20, in some cases mean of two or more determinations; for Emax: read-out: Efficiency, boosting of the acetylcholine effect at EC20 acetylcholine concentration; for Emax / Efficiency: CHO-DUKX-M2-GIRK cells; for Efficiency: boosting of the acetylcholine effect at EC20 acetylcholine concentration

EC50 [nM]	Emax [%]	Efficiency [%]	SMILES
240	98		O=C(N[C@@H](C1CC1)C(F)(F)F)c1cn(-c2ncc(F)cc2F)c2nc(N3CCCN(CCO)C3=O)ccc2c1=O [Example 123, N-[(1S)-1-Cyclopropyl-2,2,2-trifluoroethyl]-1-(3,5-difluoropyridin-2-yl)-7-[3-(2-hydroxyethyl)-2-oxotetrahydropyrimidin-1(2H)-yl]-4-oxo-1,4-dihydro-1,8-naphthyridine-3-carboxamide]
53	93		CC[C@H](NC(=O)c1cn(-c2ncc(F)cc2F)c2nc(N(C)C)ccc2c1=O)C(F)(F)F [Example 130, 1-(3,5-Difluoropyridin-2-yl)-7-(dimethylamino)-4-oxo-N-[(2S)-1,1,1-trifluorobutan-2-yl]-1,4-dihydro-1,8-naphthyridine-3-carboxamide]
120	100		CC(C)(CC(F)(F)F)NC(=O)c1cn(-c2ncc(F)cc2F)c2nc(N3C[C@@H](O)CC3=O)ccc2c1=O [Example 80, 1-(3,5-Difluoropyridin-2-yl)-7-[(4S)-4-hydroxy-2-oxopyrrolidin-1-yl]-4-oxo-N-(4,4,4-trifluoro-2-methylbutan-2-yl)-1,4-dihydro-1,8-naphthyridine-3-carboxamide]
280	99		CC(C)(CC(F)(F)F)NC(=O)c1cn(-c2ncc(F)cc2F)c2nc(N3C[C@@H](O)[C@H](O)C3)ccc2c1=O [Example 91, 1-(3,5-Difluoropyridin-2-yl)-7-[(3R,4R)-3,4-dihydroxypyrrolidin-1-yl]-4-oxo-N-(4,4,4-trifluoro-2-methylbutan-2-yl)-1,4-dihydro-1,8-naphthyridine-3-carboxamide]
89	100		CC(C)C(NC(=O)c1cn(-c2ncc(F)cc2F)c2nc(N3C[C@@H](O)CC3=O)ccc2c1=O)C(F)(F)F (stereo partly drawn) [Example 154, 1-(3,5-Difluoropyridin-2-yl)-7-[(4S)-4-hydroxy-2-oxopyrrolidin-1-yl]-4-oxo-N-[1,1,1-trifluoro-3-methylbutan-2-yl]-1,4-dihydro-1,8-naphthyridine-3-carboxamide]
120		100.00	CC(NC(=O)c1cn(-c2ncc(F)cc2F)c2nc(N3CCNC3=O)ccc2c1=O)C(F)(F)C(F)(F)F (single isomer, unassigned) [Example 163, 1-(3,5-Difluoropyridin-2-yl)-4-oxo-7-(2-oxoimidazolidin-1-yl)-N-[3,3,4,4,4-pentafluorobutan-2-yl]-1,4-dihydro-1,8-naphthyridine-3-carboxamide]
210	98		O=C(NC(C1CC1)C(F)(F)F)c1cn(-c2ncc(F)cc2F)c2nc(N3CC[C@H](O)C3=O)ccc2c1=O (stereo partly drawn) [Example 25, N-[1-Cyclopropyl-2,2,2-trifluoroethyl]-1-(3,5-difluoropyridin-2-yl)-7-[(3S)-3-hydroxy-2-oxopyrrolidin-1-yl]-4-oxo-1,4-dihydro-1,8-naphthyridine-3-carboxamide]
31	98.5		CC[C@@H](NC(=O)c1cn(-c2ncc(F)cc2F)c2nc(N3CC4CC4(O)C3)ccc2c1=O)C(F)(F)F (single isomer, unassigned) [Example 44]
103	99.5		CC(NC(=O)c1cn(-c2ncc(F)cc2F)c2nc(N3C[C@@H](O)[C@H](O)C3)ccc2c1=O)(C(F)(F)F)C(F)(F)F [Example 152, 1-(3,5-Difluoropyridin-2-yl)-7-[(3R,4R)-3,4-dihydroxypyrrolidin-1-yl]-N-(1,1,1,3,3,3-hexafluoro-2-methylpropan-2-yl)-4-oxo-1,4-dihydro-1,8-naphthyridine-3-carboxamide]
880	82		CC[C@@H](NC(=O)c1cn(-c2ncc(F)cc2F)c2nc(N3CCCCC3=O)ccc2c1=O)C(F)(F)F [Example 34, 1-(3,5-Difluoropyridin-2-yl)-4-oxo-7-(2-oxopiperidin-1-yl)-N-[(2R)-1,1,1-trifluorobutan-2-yl]-1,4-dihydro-1,8-naphthyridine-3-carboxamide]
98	100		CC1C(=O)N(c2ccc3c(=O)c(C(=O)N[C@@H](C4CC4)C(F)(F)F)cn(-c4ncc(F)cc4F)c3n2)CC1O (single isomer, unassigned) [Example 105]
265	97.5		CC(C)(NC(=O)c1cn(-c2ncc(F)cc2F)c2nc(N3CCC(CO)(CO)CC3)ccc2c1=O)C(F)(F)C(F)(F)F [Example 187]
165		91.50	CC1C(=O)N(c2ccc3c(=O)c(C(=O)N[C@@H](C4CC4)C(F)(F)F)cn(-c4ncc(F)cc4F)c3n2)CC1O (single isomer, unassigned) [Example 106]
555	96.5		CC1(O)CCN(c2ccc3c(=O)c(C(=O)N[C@H](C4CC4)C(F)(F)F)cn(-c4ncc(F)cc4Cl)c3n2)C1 (mixture of isomers) [Example 53, 1-(3-Chloro-5-fluoropyridin-2-yl)-N-[(1R)-1-cyclopropyl-2,2,2-trifluoroethyl]-7-[3-hydroxy-3-methylpyrrolidin-1-yl]-4-oxo-1,4-dihydro-1,8-naphthyridine-3-carboxamide]
525	98		CC1C(=O)N(c2ccc3c(=O)c(C(=O)N[C@@H](C)C(F)(F)F)cn(-c4ncc(F)cc4F)c3n2)CC1O (mixture of isomers) [Example 112, 1-(3,5-Difluoropyridin-2-yl)-7-[4-hydroxy-3-methyl-2-oxopyrrolidin-1-yl]-4-oxo-N-[(2S)-1,1,1-trifluoropropan-2-yl]-1,4-dihydro-1,8-naphthyridine-3-carboxamide]
65	100		CC[C@@H](NC(=O)c1cn(-c2ncc(F)cc2F)c2nc(N3CC4CC4(O)C3)ccc2c1=O)C(F)(F)F (mixture of isomers) [Example 43, 1-(3,5-Difluoropyridin-2-yl)-7-[1-hydroxy-3-azabicyclo[3.1.0]hex-3-yl]-4-oxo-N-[(2R)-1,1,1-trifluorobutan-2-yl]-1,4-dihydro-1,8-naphthyridine-3-carboxamide]
185	84		CC[C@H](NC(=O)c1cn(-c2ncc(F)cc2F)c2nc(N3CC(O)C(C)C3=O)ccc2c1=O)C(F)(F)F (mixture of isomers) [Example 108, 1-(3,5-Difluoropyridin-2-yl)-7-[4-hydroxy-3-methyl-2-oxopyrrolidin-1-yl]-4-oxo-N-[(2S)-1,1,1-trifluorobutan-2-yl]-1,4-dihydro-1,8-naphthyridine-3-carboxamide]
95	100		O=C(NC(C(F)(F)F)C(F)(F)F)c1cn(-c2ncc(F)cc2F)c2nc(N3CCC(O)(CO)CC3)ccc2c1=O [Example 179]
130	97		CC(C)(C)[C@H](NC(=O)c1cn(-c2ncc(F)cc2F)c2nc(N3CCN(CCO)C3=O)ccc2c1=O)C(F)(F)F [Example 124, 1-(3,5-Difluoropyridin-2-yl)-7-[3-(2-hydroxyethyl)-2-oxoimidazolidin-1-yl]-4-oxo-N-[(2S)-1,1,1-trifluoro-3,3-dimethylbutan-2-yl]-1,4-dihydro-1,8-naphthyridine-3-carboxamide]
22	100		O=C(NC(c1cccc(Cl)c1)C(F)(F)F)c1cn(-c2ncc(F)cc2F)c2nc(N3C[C@@H](O)CC3=O)ccc2c1=O (stereo partly drawn) [Example 7, N-[1-(3-Chlorophenyl)-2,2,2-trifluoroethyl]-1-(3,5-difluoropyridin-2-yl)-7-[(4S)-4-hydroxy-2-oxopyrrolidin-1-yl]-4-oxo-1,4-dihydro-1,8-naphthyridine-3-carboxamide]
